These results are taken from patent US20110104662A1, “Methods of Detecting Inhibitors of VIF-Mediated APOBEC3G Degradation and HIV” (RIGEL PHARMACEUTICALS, INC., priority 2007, published 2011).

The test system of test [1] is Vif-mediated APOBEC3G degradation. Description: Cell-based screening assay, Vif/APOBEC3G-luciferase HeLa line. Set-up: species or system HIV. Conditions: 10 μM MG132 for 24 hours; selected blasticidin-resistant Vif/APOBEC3G-luciferase HeLa clone. The source says: Inhibitors of Vif-mediated APOBEC3G degradation were screened using a cell-based assay. The assay uses HeLa cells that stably expresses Vif and APOBEC3G fused at its C-terminus to firefly luciferase. Under steady-state conditions, there is very little luciferase activity. When degradation of the APOBEC3G-luciferase fusion is inhibited, a significant increase in the luciferase activity is observed.
Construction of screening line (Vif/APOBEC3G-luciferase HeLa line). HeLa cells were cotransfected with a 1:1 ratio of pcDNA6-Vif and pcDNA3.1-APOBEC3G-luciferase plasmids using Fugene transfection reagent. Twenty-four hours after transfection, cells were trypsinized and different dilutions plated on 10 cm dishes. After attachment, stable transfectants were selected using medium containing 10 μg/ml blasticidin S. The blasticidin resistance gene is carried in the pcDNA6-Vif plasmid. Individual clones were plated in duplicate 96-well plates, treated with either DMSO or 10 μM MG132 for 24 hours, and then assayed for luciferase activity. […] The presence of Vif and APOBEC3G-luciferase proteins was confirmed by treating cells with 10 μM MG132 overnight and analyzing cell lysates for both Vif and APOBEC3G-luciferase by western blotting (See FIG. 7B).

The subject of test [2] is A3G-luciferase (A3G-luc). The test is described as follows: APOBEC3G-luciferase activity in 293T cell lysate of co-transfected virus producer cells. The note with it: 10 uM MG132. It is filed as cell-based. The source says:
(§1) In all embodiments employing cotransfection of a wild-type or Δvif HIV genome together with an APOBEC3G-fluorescent reporter fusion, adjusting the relative ratio of plasmids encoding the wild-type (WT) or Δvif HIV genomes and A3G-luciferase (A3G-luc) for cotransfection in virus producer cells (e.g., 293T cells) is useful for achieving an optimal signal to background ratio and dynamic assay range for antiviral compound characterization. Adjusting the cotransfection ratio is also useful for obtaining a linear correlation between the fluorescent reporter (e.g., luciferase) signal and the level of A3G-fluorescent reporter protein detected by Western blotting. The luciferase activity ratio of (Δvif HIV+A3G-luc) over (WT HIV+A3G-luc) in both virus supernatant and 293T cell lysates was measured.
(§2) 293T cells were seeded in 6-well plates at 500,000 cells/well density. On the second day, 4 μg of wild-type or delta vif HIV-1 construct and pcDNA3.1-APOBEC3G-luciferase construct plasmid DNA were co-transfected into 293T cells using Lipofectamine 2000 (Invitrogen). On the third day, cells were detached with trypsin and plated into 24-well plates at 300,000 cells/well density. On the fourth day, medium was replaced in each well with either 0.5% DMSP medium or with compound and 0.5% DMSO containing medium.
Twenty hours post dosing, the virus producing 293T cells of Example 5 were lysed with 200 μL of Bright-Glo lysis buffer in 24-well plates. Cell lysates were diluted 1:100 in PBS. 10 μL of each lysate sample were transferred to small well 96-well plates and 10 μL of Bright-Glo substrate were added to each well. The luciferase activity from the cell lysates was then detected using a Top Count reader. The total protein concentration was determined using the Quant-IT Protein Assay Kit (Molecular Probes). The luciferase activity was normalized relative to total cellular protein by dividing the background corrected luciferase light units by the total protein concentration.

The test system of test [3] is A3G-luciferase (A3G-luc). Description: APOBEC3G-luciferase activity in virus supernatant of co-transfected 293T cells. It is filed as cell-based. The note with it: 10 uM MG132.
Source text: as §1, §2
Twenty hours post dosing, the culture supernatant from Example 5 was harvested and filtered through a 0.45μ filter. Twenty microliters of virus supernatant from each sample were transferred into a 96-Well plate. 30 μL of culture medium and 50 μL of Bright-Glo lysis buffer (Promega), were added to each well, followed by 50 μL of Bright-Glo Substrate (Promega). The luciferase activity from the virus supernatant was then detected using a Top Count reader (Perkin Elmer). The concentration of virus particles in the supernatant was determined by p24 ELISA (Perkin Elmer). The luciferase activity of the virus supernatant was then normalized relative to the concentration of virus particles by dividing the background corrected luciferase light units by the p24 values.

[4] abbreviates: Experiment 1, co-transfection ratio 19:1.
[5] abbreviates: Experiment 1, co-transfection ratio 39:1.
[6] abbreviates: Experiment 1, co-transfection ratio 79:1.
The mark [7] stands for this setting: Experiment 1, co-transfection ratio 159:1.
Where [8] appears, read: Experiment 2, co-transfection ratio 19:1.
Setting [9] is: Experiment 2, co-transfection ratio 39:1.
Setting [10] is: Experiment 2, co-transfection ratio 79:1.
[11] abbreviates: Experiment 2, co-transfection ratio 159:1.

SMILES strings stand for the structures. Where a SMILES comes first, the peptide text is derived from it. The star is where a group is joined. Cbz = O=C(OCc1ccccc1)*

Consider `CC(C)C[C@@H](C=O)NC(=O)[C@H](CC(C)C)NC(=O)[C@H](CC(C)C)NC(=O)OCc1ccccc1` [MG132] (Cbz-Leu-Leu-Leu-aldehyde), for which the “window in luciferase activity between DMSO and MG132” value in test [1] is reported as “at least a ten-fold window in luciferase activity”. In addition, the “RLU ratio (delta vif HIV + A3G-luc/WT HIV + A3G-luc), 293 T cell lysate (RLU)” value was 2.6 in the test with A3G-luciferase (A3G-luc) [2] (setting [4]); 2.4 in the test with A3G-luciferase (A3G-luc) [2] (setting [5]); 3.7 in the test on A3G-luciferase (A3G-luc) [2] (setting [6]); 6.8 in the test with A3G-luciferase (A3G-luc) [2] (setting [7]); 1.4 in the test on A3G-luciferase (A3G-luc) [2] (setting [8]); 1.8 in the test on A3G-luciferase (A3G-luc) [2] (setting [9]). In addition, the “RLU ratio (delta vif HIV + A3G-luc/WT HIV + A3G-luc), 293 T cell lysate (RLU)” value worked out at 2.9 in the test on A3G-luciferase (A3G-luc) [2] (setting [10]) and 8.7 in the test on A3G-luciferase (A3G-luc) [2] (setting [11]). The “RLU ratio (delta vif HIV + A3G-luc/WT HIV + A3G-luc), Virus sup. (RLU)” value in the test with A3G-luciferase (A3G-luc) [3] (setting [4]) stood at 3.2; in the test on A3G-luciferase (A3G-luc) [3] (setting [5]) it was 5.5; with A3G-luciferase (A3G-luc) [3] (setting [6]) it was 5.9; in the test on A3G-luciferase (A3G-luc) [3] (setting [7]), 4.7; in the test on A3G-luciferase (A3G-luc) [3] (setting [8]), 9.2; in the test with A3G-luciferase (A3G-luc) [3] (setting [9]), 3.9. Also, the “RLU ratio (delta vif HIV + A3G-luc/WT HIV + A3G-luc), Virus sup. (RLU)” value in the test with A3G-luciferase (A3G-luc) [3] (setting [10]) was determined as 16.8; with A3G-luciferase (A3G-luc) [3] (setting [11]), 9.2.
